According to the NIST ThermoML archive (doi:10.1021/acs.jced.9b00844):
Numbers after ± are expanded uncertainties.

How the values were obtained:
[1] = Crystal; DSC
[2] = Molar enthalpy of transition or fusion; details: Crystal; DSC

Q: What does the source list for N=C(N)NC(=N)NCCc1ccccc1 [N-(2-phenylethyl)imidodicarbonimidic diamide]?
A: Triple point temperature [1]: 446.85 ± 1.2 K; Molar enthalpy of transition or fusion [2]: 2.78 ± 0.179 kcal/mol
